Measured values from ChEMBL document CHEMBL1201862, “PubChem BioAssay data set” (2004).
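Method: 48-hour compound exposure of cells in 96-well plates, five concentrations, linear interpolation of endpoints. Abbreviation: GI50, concentration required for 50% inhibition of growth.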 Activity calls are given as the source filed them. Cut-off read from the data, not from the text of the source: active = GI50 up to about 1.1 µM and inactive = higher.

How the values were obtained:
Test in all cases: inhibition of tumour cell growth, NCI panel, 48 h
SK-OV-3 = test system: SK-OV-3
M14 = test system: M14
A549 = test system: A549
A498 = test system: A498
HL-60 = test system: HL-60
XF498 = test system: XF498
NCI-H23 = test system: NCI-H23
CCRF-CEM = test system: CCRF-CEM
DMS-114 = test system: DMS-114
RPMI-8226 = test system: RPMI-8226
M19-MEL = test system: M19-MEL
HT-29 = test system: HT-29
SK-MEL-2 = test system: SK-MEL-2
MOLT-4 = test system: MOLT-4
KM12 = test system: KM12
COLO 205 = test system: COLO 205
SF-539 = test system: SF-539
KM-20L2 = test system: KM-20L2
ACHN = test system: ACHN
DLD-1 = test system: DLD-1
NCI-H226 = test system: NCI-H226
HOP-62 = test system: HOP-62
786-0 = test system: 786-0
UO-31 = test system: UO-31
NCI-H460 = test system: NCI-H460
RXF 393 = test system: RXF 393
SW-620 = test system: SW-620
HCT-15 = test system: HCT-15
SNB-19 = test system: SNB-19
UACC-257 = test system: UACC-257
SN12C = test system: SN12C
LOX IMVI = test system: LOX IMVI
SF-295 = test system: SF-295
SK-MEL-5 = test system: SK-MEL-5
TK-10 = test system: TK-10
SNB-78 = test system: SNB-78
EKVX = test system: EKVX
OVCAR-3 = test system: OVCAR-3
NCI-H522 = test system: NCI-H522
DMS-273 = test system: DMS-273
IGROV-1 = test system: IGROV-1
SK-MEL-28 = test system: SK-MEL-28
Malme-3M = test system: Malme-3M
LXFL 529 = test system: LXFL 529
U-251 = test system: U-251
OVCAR-8 = test system: OVCAR-8
K562 = test system: K562
UACC-62 = test system: UACC-62
SNB-75 = test system: SNB-75
SF-268 = test system: SF-268
CAKI-1 = test system: CAKI-1
HCC 2998 = test system: HCC 2998
OVCAR-4 = test system: OVCAR-4
HCT-116 = test system: HCT-116
OVCAR-5 = test system: OVCAR-5
SR = test system: SR
HOP-92 = test system: HOP-92

Cc1ccc([N+](=O)[O-])cc1NC(=O)c1cccc([N+](=O)[O-])c1O
GI50 (SK-OV-3): 17.1 µM (inactive) | GI50 (M14): 16.8 µM (inactive) | GI50 (A549): 22.4 µM (inactive) | GI50 (A498): 11.3 µM (inactive) | GI50 (HL-60): 5.01 µM (inactive) | GI50 (XF498): 18.2 µM (inactive) | GI50 (NCI-H23): 12.3 µM (inactive) | GI50 (CCRF-CEM): 18.2 µM (inactive) | GI50 (DMS-114): 8.73 µM (inactive) | GI50 (RPMI-8226): 4.73 µM (inactive) | GI50 (M19-MEL): 15.5 µM (inactive) | GI50 (HT-29): 20.1 µM (inactive) | GI50 (SK-MEL-2): 7.98 µM (inactive) | GI50 (MOLT-4): 15.6 µM (inactive) | GI50 (KM12): 19.1 µM (inactive) | GI50 (COLO 205): 17.1 µM (inactive) | GI50 (SF-539): 12.3 µM (inactive) | GI50 (KM-20L2): 25.5 µM (inactive) | GI50 (ACHN): 14.4 µM (inactive) | GI50 (DLD-1): 20.7 µM (inactive) | GI50 (NCI-H226): 13.6 µM (inactive) | GI50 (HOP-62): 7.96 µM (inactive) | GI50 (786-0): 28.9 µM (inactive) | GI50 (UO-31): 6.27 µM (inactive) | GI50 (NCI-H460): 12.2 µM (inactive) | GI50 (RXF 393): 3.99 µM (inactive) | GI50 (SW-620): 34.2 µM (inactive) | GI50 (HCT-15): 25 µM | GI50 (SNB-19): 14.1 µM (inactive) | GI50 (UACC-257): 9.59 µM (inactive) | GI50 (SN12C): 23.8 µM (inactive) | GI50 (LOX IMVI): 26.6 µM (inactive) | GI50 (SF-295): 18 µM (inactive) | GI50 (SK-MEL-5): 7.91 µM (inactive) | GI50 (TK-10): 31.2 µM (inactive) | GI50 (SNB-78): 20.8 µM (inactive) | GI50 (EKVX): 21.2 µM (inactive) | GI50 (OVCAR-3): 7.24 µM (inactive) | GI50 (NCI-H522): 3.97 µM (inactive) | GI50 (DMS-273): 11.9 µM (inactive) | GI50 (IGROV-1): 11.7 µM (inactive) | GI50 (SK-MEL-28): 11.5 µM (inactive) | GI50 (Malme-3M): 5.09 µM (inactive) | GI50 (LXFL 529): 19.1 µM (inactive) | GI50 (U-251): 15.9 µM (inactive) | GI50 (OVCAR-8): 23 µM (inactive) | GI50 (K562): 12.3 µM (inactive) | GI50 (UACC-62): 3.85 µM (inactive) | GI50 (SNB-75): 13.4 µM (inactive) | GI50 (SF-268): 14.6 µM (inactive) | GI50 (CAKI-1): 17.8 µM (inactive)

COc1cc(OC)cc(C(=O)Cc2c(C(=O)c3ccccc3)c3ccccc3n2C(=O)c2ccccc2)c1
GI50 (SK-OV-3): 22.8 µM (inactive) | GI50 (M14): 32.2 µM (inactive) | GI50 (A549): 25.3 µM (inactive) | GI50 (A498): 13.2 µM (inactive) | GI50 (HL-60): 34.5 µM (inactive) | GI50 (XF498): 21.4 µM (inactive) | GI50 (NCI-H23): 14.4 µM (inactive) | GI50 (CCRF-CEM): 16 µM (inactive) | GI50 (DMS-114): 15.5 µM (inactive) | GI50 (RPMI-8226): 9.29 µM (inactive) | GI50 (M19-MEL): 32 µM (inactive) | GI50 (HT-29): 22.9 µM (inactive) | GI50 (HCC 2998): 43.4 µM (inactive) | GI50 (SK-MEL-2): 20.5 µM (inactive) | GI50 (MOLT-4): 9.4 µM (inactive) | GI50 (KM12): 33.7 µM (inactive) | GI50 (COLO 205): 28.6 µM (inactive) | GI50 (SF-539): 30.2 µM (inactive) | GI50 (KM-20L2): 50.6 µM (inactive) | GI50 (ACHN): 33 µM (inactive) | GI50 (DLD-1): 20.3 µM (inactive) | GI50 (NCI-H226): 31.1 µM (inactive) | GI50 (HOP-62): 93.5 µM (inactive) | GI50 (786-0): 38.9 µM (inactive) | GI50 (UO-31): 24.4 µM (inactive) | GI50 (NCI-H460): 15.5 µM (inactive) | GI50 (RXF 393): 43.6 µM (inactive) | GI50 (SW-620): 37.5 µM (inactive) | GI50 (HCT-15): 31.3 µM | GI50 (SNB-19): 11.3 µM (inactive) | GI50 (OVCAR-4): 15.3 µM (inactive) | GI50 (SN12C): 43.8 µM (inactive) | GI50 (HCT-116): 23.2 µM (inactive) | GI50 (LOX IMVI): 31.8 µM (inactive) | GI50 (SF-295): 19.5 µM (inactive) | GI50 (SK-MEL-5): 13.1 µM (inactive) | GI50 (TK-10): 38.5 µM (inactive) | GI50 (OVCAR-5): > 100 µM (inactive) | GI50 (SNB-78): 38.3 µM (inactive) | GI50 (EKVX): 55.2 µM (inactive) | GI50 (OVCAR-3): 21.3 µM (inactive) | GI50 (NCI-H522): 6 µM (inactive) | GI50 (DMS-273): 27.4 µM (inactive) | GI50 (IGROV-1): 31.3 µM (inactive) | GI50 (SK-MEL-28): 34.4 µM (inactive) | GI50 (SR): 14.2 µM (inactive) | GI50 (Malme-3M): 38.5 µM (inactive) | GI50 (LXFL 529): 9.95 µM (inactive) | GI50 (U-251): 20.2 µM (inactive) | GI50 (OVCAR-8): 16.9 µM (inactive) | GI50 (K562): 16.7 µM (inactive) | GI50 (UACC-62): 35.4 µM (inactive) | GI50 (SNB-75): 7.46 µM (inactive) | GI50 (SF-268): 65.3 µM (inactive) | GI50 (CAKI-1): 50.5 µM (inactive) | GI50 (HOP-92): 3.78 µM (inactive)

Cc1cn(C2CC3C(COCN3O)O2)c(=O)[nH]c1=O (stereo unspecified)
GI50 (SK-OV-3): > 100 µM (inactive) | GI50 (M14): > 100 µM (inactive) | GI50 (A549): > 100 µM (inactive) | GI50 (HL-60): > 100 µM (inactive) | GI50 (XF498): > 100 µM (inactive) | GI50 (NCI-H23): > 100 µM (inactive) | GI50 (CCRF-CEM): > 100 µM (inactive) | GI50 (DMS-114): > 100 µM (inactive) | GI50 (RPMI-8226): > 100 µM (inactive) | GI50 (M19-MEL): > 100 µM (inactive) | GI50 (HT-29): > 100 µM (inactive) | GI50 (HCC 2998): > 100 µM (inactive) | GI50 (MOLT-4): > 100 µM (inactive) | GI50 (KM12): > 100 µM (inactive) | GI50 (COLO 205): > 100 µM (inactive) | GI50 (SF-539): > 100 µM (inactive) | GI50 (KM-20L2): > 100 µM (inactive) | GI50 (ACHN): > 100 µM (inactive) | GI50 (NCI-H226): > 100 µM (inactive) | GI50 (HOP-62): > 100 µM (inactive) | GI50 (786-0): > 100 µM (inactive) | GI50 (UO-31): > 100 µM (inactive) | GI50 (NCI-H460): > 100 µM (inactive) | GI50 (RXF 393): > 100 µM (inactive) | GI50 (SW-620): > 100 µM (inactive) | GI50 (HCT-15): > 100 µM | GI50 (SNB-19): > 100 µM (inactive) | GI50 (OVCAR-4): > 100 µM (inactive) | GI50 (UACC-257): > 100 µM (inactive) | GI50 (SN12C): > 100 µM (inactive) | GI50 (HCT-116): > 100 µM (inactive) | GI50 (LOX IMVI): > 100 µM (inactive) | GI50 (SF-295): > 100 µM (inactive) | GI50 (SK-MEL-5): > 100 µM (inactive) | GI50 (TK-10): > 100 µM (inactive) | GI50 (OVCAR-5): > 100 µM (inactive) | GI50 (EKVX): > 100 µM (inactive) | GI50 (OVCAR-3): > 100 µM (inactive) | GI50 (DMS-273): > 100 µM (inactive) | GI50 (IGROV-1): > 100 µM (inactive) | GI50 (SK-MEL-28): > 100 µM (inactive) | GI50 (SR): > 100 µM (inactive) | GI50 (LXFL 529): > 100 µM (inactive) | GI50 (U-251): > 100 µM (inactive) | GI50 (OVCAR-8): > 100 µM (inactive) | GI50 (K562): > 100 µM (inactive) | GI50 (UACC-62): > 100 µM (inactive) | GI50 (SNB-75): 97.3 µM (inactive) | GI50 (SF-268): > 100 µM (inactive)
